Experimental data as given in US20060149062A1, “Sulfanyl substituted phenyl methanones” (priority 2005, published 2006).

molecular target: T1, mGlyT-1b (Mus musculus, UniProt P28571); experiment: Glycine Uptake Inhibition Assay (mGlyT-1b); assay type: cell-based; conditions: [3H]-glycine uptake in Flp-in-CHO cells transfected with mGlyT-1b cDNA; read-out: IC50 (μM) at GlyT-1
T1 construct: expressed in transfected cells; host or cells: Flp-in-CHO (Invitrogen Cat no R758-07), stably transfected
T1 sequence (P28571 1-651 isoform P28571-2): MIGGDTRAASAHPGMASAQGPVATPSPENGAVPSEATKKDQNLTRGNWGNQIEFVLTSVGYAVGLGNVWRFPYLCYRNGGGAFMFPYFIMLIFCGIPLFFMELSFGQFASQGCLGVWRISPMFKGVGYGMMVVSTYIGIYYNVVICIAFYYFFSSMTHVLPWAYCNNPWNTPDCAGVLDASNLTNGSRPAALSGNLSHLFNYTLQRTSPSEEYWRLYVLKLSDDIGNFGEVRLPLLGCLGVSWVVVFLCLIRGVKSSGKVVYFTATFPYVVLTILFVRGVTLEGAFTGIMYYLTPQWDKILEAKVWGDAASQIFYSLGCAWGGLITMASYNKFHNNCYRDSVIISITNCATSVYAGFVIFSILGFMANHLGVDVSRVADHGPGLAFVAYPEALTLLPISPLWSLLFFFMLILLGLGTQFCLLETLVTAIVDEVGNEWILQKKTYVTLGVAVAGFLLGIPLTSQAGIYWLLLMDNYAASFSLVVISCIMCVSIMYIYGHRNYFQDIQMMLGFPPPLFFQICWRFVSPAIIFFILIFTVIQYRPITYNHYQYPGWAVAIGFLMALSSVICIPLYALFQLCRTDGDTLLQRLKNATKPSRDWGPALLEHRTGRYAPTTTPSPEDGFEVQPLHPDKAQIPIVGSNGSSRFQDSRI
Description: DMEM complete medium: Nutrient mixture F-12 (Gibco Life-technologies), fetal bovine serum (FBS) 5%, (Gibco life technologies), Penicillin/Streptomycin 1% (Gibco life technologies), Hygromycin 0.6 mg/ml (Gibco life technologies), Glutamine 1 mM Gibco life technologies)
Uptake buffer (UB): 150 mM NaCl, 10 mM Hepes-Tris, pH 7.4, 1 mM CaCl2, 2.5 mM KCl, 2.5 mM MgSO4, 10 mM (+) D-glucose.
Flp-in™-CHO (Invitrogen Cat no R758-07) cells stably transfected with mGlyT1b cDNA.
Glycine Uptake Inhibition Assay (mGlyT-1b)
On day 1 mammalian cells, (Flp-in™-CHO), transfected with mGlyT-1b cDNA, were plated at the density of 40,000 cells/well in complete F-12 medium, without hygromycin in 96-well culture plates. On day 2, the medium was aspirated and the cells were washed twice with uptake buffer (UB). The cells were then incubated for 20 min at 22° C. with either (i) no potential competitor, (ii) 10 mM non-radioactive glycine, (iii) a concentration of a potential inhibitor. A range of concentrations of the potential inhibitor was used to generate data for calculating the concentration of inhibitor resulting in 50% of the effect (e.g. IC50, the concentration of the competitor inhibiting glycine uptake of 50%). A solution was then immediately added containing [^3H]-glycine 60 nM (11-16 Ci/mmol) and 25 μM non-radioactive glycine. The plates were incubated with gentle shaking and the reaction was stopped by aspiration of the mixture and washing (three times) with ice-cold UB. The cells were lysed with scintillation liquid, shaken 3 hours and the radioactivity in the cells was counted using a scintillation counter.

Point of comparison: `CNS(=O)(=O)c1ccc(SC(C)C)c(C(=O)N2CCN(c3ccc(C(F)(F)F)cc3)CC2)c1` [Example 25, 4-Isopropylsulfanyl-N-methyl-3-[4-(4-trifluoromethyl-phenyl)-piperazine-1-carbonyl]-benzenesulfonamide], IC50 0.006 µM. Against it:
- CC(C)Sc1ccc(S(C)(=O)=O)cc1C(=O)N1CCN(c2ncc(C(F)(F)F)cc2F)CC1 [Example 3, [4-(3-Fluoro-5-trifluoromethyl-pyridin-2-yl)-piperazin-1-yl]-(2-isopropylsulfanyl-5-methanesulfonyl-phenyl)-methanone] — 5-fold higher, 0.03 µM
- CC(C)Sc1ccc(S(C)(=O)=O)cc1C(=O)N1CCN(c2ccc(S(C)(=O)=O)cc2F)CC1 [Example 6, [4-(2-Fluoro-4-methanesulfonyl-phenyl)-piperazin-1-yl]-(2-isopropylsulfanyl-5-methanesulfonyl-phenyl)-methanone] — 6.7-fold higher, 0.04 µM
- CCSc1ccc(S(C)(=O)=O)cc1C(=O)N1CCN(c2ncc(C(F)(F)F)cc2F)CC1 [Example 7, (2-Ethylsulfanyl-5-methanesulfonyl-phenyl)-[4-(3-fluoro-5-trifluoromethyl-pyridin-2-yl)-piperazin-1-yl]-methanone] — 13-fold higher, 0.08 µM
- CS(=O)(=O)c1ccc(SCC(F)(F)F)c(C(=O)N2CCN(c3ncc(C(F)(F)F)cc3F)CC2)c1 [Example 11, [4-(3-Fluoro-5-trifluoromethyl-pyridin-2-yl)-piperazin-1-yl]-[5-methanesulfonyl-2-(2,2,2-trifluoro-ethylsulfanyl)-phenyl]-methanone] — 12-fold higher, 0.07 µM
- CS(=O)(=O)c1ccc(N2CCN(C(=O)c3cc(S(C)(=O)=O)ccc3SCC(F)(F)F)CC2)c(F)c1 [Example 14, [4-(2-Fluoro-4-methanesulfonyl-phenyl)-piperazin-1-yl]-[5-methanesulfonyl-2-(2,2,2-trifluoro-ethylsulfanyl)-phenyl]-methanone] — 17-fold higher, 0.1 µM
- CC(C)CSc1ccc(S(C)(=O)=O)cc1C(=O)N1CCN(c2ccc(S(C)(=O)=O)cc2F)CC1 [Example 18, [4-(2-Fluoro-4-methanesulfonyl-phenyl)-piperazin-1-yl]-(2-isobutylsulfanyl-5-methanesulfonyl-phenyl)-methanone] — 17-fold higher, 0.1 µM
- CC(=O)c1ccc(N2CCN(C(=O)c3cc(S(C)(=O)=O)ccc3SC(C)C)CC2)c(F)c1 [Example 22, 1-{3-Fluoro-4-[4-(2-isopropylsulfanyl-5-methanesulfonyl-benzoyl)-piperazin-1-yl]-phenyl}-ethanone] — 2.5-fold higher, 0.015 µM
- CC(C)Sc1ccc(S(C)(=O)=O)cc1C(=O)N1CCN(c2ccc([N+](=O)[O-])cc2Cl)CC1 [Example 23, [4-(2-Chloro-4-nitro-phenyl)-piperazin-1-yl]-(2-isopropylsulfanyl-5-methanesulfonyl-phenyl)-methanone] — 3-fold higher, 0.018 µM
- CC(C)Sc1ccc([N+](=O)[O-])cc1C(=O)N1CCN(c2ccc(C(F)(F)F)cc2)CC1 [Example 27, (2-Isopropylsulfanyl-5-nitro-phenyl)-[4-(4-trifluoromethyl-phenyl)-piperazin-1-yl]-methanone] — within 1.5-fold, 0.007 µM
